pEC50: −log10 of the molar value.
These compounds were tested on MeV-Alaska (assay: Antiviral activity of compound analogs against MeV-Alaska (tables 1-5)). Conditions: Measles morbillivirus; Table 5.
Type: cell-based, measles virus

| pEC50 | Structure (SMILES) |
| --- | --- |
| < 4.12 | Cc1ccc(NC(=O)C(C)(C)[S+]([O-])c2nc3ccccc3n2-c2ccccc2)c(Cl)c1 (centres unmarked) [Compound 171] |
| < 4.12 | Cc1ccc(NC(=O)C(C)Sc2nc3ccccc3s2)c(Cl)c1 (centres unmarked) [Compound 130] |
| < 4.12 | Cc1ccc(NC(=O)CSc2nc3cc(C)c(C)cc3n2Cc2ccc(F)cc2)c(Cl)c1 [Compound 144] |
| < 4.12 | Cc1ccc(NC(=O)C(C)Sc2nc(-c3ccccc3)c(-c3ccccc3)n2Cc2ccc(F)cc2)c(Cl)c1 (centres unmarked) [Compound 128] |
| < 4.12 | COc1ccc(-n2c(S(=O)(=O)CC(=O)Nc3ccc(C)cc3Cl)nc3ccccc32)cc1 [Compound 141] |
| < 4.12 | Cc1ccc(NC(=O)CSc2nc3ccc(Br)cc3n2Cc2ccc(F)cc2)c(Cl)c1 [Compound 169] |
| < 4.12 | CCOC(=O)c1ccc2[nH]c(SC(C)C(=O)Nc3ncc(Cl)cc3Cl)nc2c1 (centres unmarked) [Compound 158] |
| < 4.12 | CCOC(=O)c1ccc2[nH]c(SC(C)C(=O)Nc3ccc(C)cc3Cl)nc2c1 (centres unmarked) [Compound 126] |
| < 4.12 | COc1ccc(Cn2c(CCC(=O)Nc3ccc(C)cc3Cl)nc3ccccc32)cc1 [Compound 137] |
| 5.92 | Cc1ccc(NC(=O)C(C)Sc2nc3cccnc3n2-c2ccccc2)c(Cl)c1 (centres unmarked) [Compound 146] |
| < 4.12 | Cc1ccc(NC(=O)C(C)Sc2nc(-c3ccccc3)c(-c3ccccc3)[nH]2)c(Cl)c1 (centres unmarked) [Compound 152] |
| 4.80 | Cc1ccc(NC(=O)CSc2nc3cccnc3n2-c2ccccc2)c(Cl)c1 [Compound 147] |
| < 4.12 | Cc1ccc(NC(=O)C(C)Sc2nc3ccccc3o2)c(Cl)c1 (centres unmarked) [Compound 151] |
| < 4.12 | Cc1ccc(N(Cc2ccc(F)cc2)C(=O)C(C)Sc2nc(-c3ccccc3)c(-c3ccccc3)n2Cc2ccc(F)cc2)c(Cl)c1 (centres unmarked) [Compound 167] |
| < 4.12 | COc1ccc(Cn2c(CCC(=O)Nc3ccc(Cl)cc3Cl)nc3ccccc32)cc1 [Compound 160] |
| 5.74 | O=C(CSc1nc2ccccc2n1-c1ccc(F)cc1)Nc1ncc(Cl)cc1Cl [Compound 156] |
| 5.38 | COc1ccc(-n2c([S+]([O-])CC(=O)Nc3ccc(C)cc3Cl)nc3ccccc32)cc1 (centres unmarked) [Compound 165] |
| < 4.12 | COc1ccc(Cn2c(NC(C)C(=O)Nc3ccc(C)cc3Cl)nc3ccccc32)cc1 (centres unmarked) [Compound 127] |
| < 4.12 | Cc1cc2nc(SC(C)C(=O)Nc3ncc(Cl)cc3Cl)[nH]c2cc1C (centres unmarked) [Compound 133] |
| < 4.12 | COc1ccc(Cn2c(CC(C)NC(=O)c3ccc(Cl)cc3Cl)nc3ccccc32)cc1 (centres unmarked) [Compound 136] |
| < 4.12 | Cc1ccc(N(Cc2ccc(F)cc2)C(=O)CSc2nc(-c3ccccc3)c(-c3ccccc3)n2Cc2ccc(F)cc2)c(Cl)c1 [Compound 143] |
| < 5.03 | Cc1ccc(NC(=O)C(C)Sc2cc3ccccc3n2-c2ccccc2)c(Cl)c1 (centres unmarked) [Compound 173] |
| < 4.12 | COc1ccc(-n2ccnc2SC(C)C(=O)Nc2ncc(Cl)cc2Cl)cc1 (centres unmarked) [Compound 132] |
| 5.68 | Cc1ccc(NC(=O)C(C)Sc2nc3cc(C)c(C)cc3n2Cc2ccc(F)cc2)c(Cl)c1 (centres unmarked) [Compound 129] |
| < 3.82 | COc1ccc(-n2c(S(=O)(=O)C(C)C(=O)Nc3ccc(C)cc3Cl)nc3ccccc32)cc1 (centres unmarked) [Compound 150] |
| 6.36 | COc1ccc(-n2c(SCC(=O)Nc3ncc(Cl)cc3Cl)nc3ccccc32)cc1 [Compound 155] |
| < 4.12 | COc1ccc(-n2c(SC(C)C(=O)N(C)c3ccc(Cl)cc3Cl)nc3ccccc32)cc1 (centres unmarked) [Compound 149] |
| < 5.00 | Cc1cccc(-n2c(SC/C=C/c3ccccc3)nc3ccccc32)c1 [Compound 166] |

Same assay, conditions: Table 1

| Structure (SMILES) | pEC50 |
| --- | --- |
| COc1ccc(-n2c(SC(C)C(=O)Nc3nc(C)cc(Cl)n3)nc3ccccc32)cc1 (centres unmarked) [Compound 7] | < 3.82 |
| COc1ccc(-n2c(SC(C)C(=O)Nc3ccc(N)cc3C)nc3ccccc32)cc1 (centres unmarked) [Compound 52] | < 5.03 |
| COc1ccc(-n2c(SC(C)C(=O)Nc3ccc(Cl)cc3Cl)nc3ccccc32)cc1 (centres unmarked) [Compound 12] | 6.40 |
| COc1ccc(-n2c(SC(C)C(=O)Nc3ncc(C)cc3Cl)nc3ccccc32)cc1 (centres unmarked) [Compound 5] | 7.40 |
| COc1ccc(-n2c(SC(C)C(=O)Nc3cccc(N)c3)nc3ccccc32)cc1 (centres unmarked) [Compound 51] | 5.15 |
| COc1ccc(-n2c(SC(C)C(=O)Nc3ccc(C)cn3)nc3ccccc32)cc1 (centres unmarked) [Compound 24] | 6.30 |
| COc1ccc(-n2c(SC(C)C(=O)Nc3cccc(Cl)c3)nc3ccccc32)cc1 (centres unmarked) [Compound 14] | 6.30 |
| COc1ccc(-n2c(SC(C)C(=O)Nc3cccc(C)c3)nc3ccccc32)cc1 (centres unmarked) [Compound 10] | 6.52 |
| COc1ccc(-n2c(SC(C)C(=O)Nc3nc(C)c(C)s3)nc3ccccc32)cc1 (centres unmarked) [Compound 54] | 5.60 |
| COc1ccc(-n2c(SC(C)C(=O)NC3CCCCC3)nc3ccccc32)cc1 (centres unmarked) [Compound 9] | < 4.12 |
| COc1ccc(-n2c(SC(C)C(=O)Nc3ccccc3C)nc3ccccc32)cc1 (centres unmarked) [Compound 15] | 5.94 |
| COc1ccc(-n2c(SC(C)C(=O)Nc3ccc(C)cc3F)nc3ccccc32)cc1 (centres unmarked) [Compound 31] | 6.70 |
| COc1ccc(-n2c(SC(C)C(=O)Nc3ccc([N+](=O)[O-])cc3C)nc3ccccc32)cc1 (centres unmarked) [Compound 32] | < 5.03 |
| COc1ccc(-n2c(SC(C)C(=O)Nc3cc(Cl)nc(Cl)c3)nc3ccccc32)cc1 (centres unmarked) [Compound 22] | < 4.12 |

Same assay, conditions: Table 2

| Structure (SMILES) | pEC50 |
| --- | --- |
| Cc1cccc(-n2c(SC(C)C(=O)Nc3ccc(C)cc3Cl)nc3ccccc32)c1 (centres unmarked) [Compound 75] | 7.00 |
| COc1cccc(-n2c(SC(C)C(=O)Nc3ccc(C)cc3Cl)nc3ccccc32)c1 (centres unmarked) [Compound 71] | 6.22 |
| Cc1ccc(NC(=O)C(C)Sc2nc3ccccc3n2S(=O)(=O)C2CCCCC2)c(Cl)c1 (centres unmarked) [Compound 89] | 6.21 |
| Cc1ccc(NC(=O)C(C)Sc2nc3ccccc3n2-c2cccc(CO)c2)c(Cl)c1 (centres unmarked) [Compound 80] | 6.15 |
| Cc1ccc(NC(=O)C(C)Sc2nc3ccccc3n2-c2cccc(CN3CCN(C)CC3)c2)c(Cl)c1 (centres unmarked) [Compound 65] | 5.89 |
| Cc1ccc(NC(=O)C(C)Sc2nc3ccccc3n2-c2ccc(N)cc2)c(Cl)c1 (centres unmarked) [Compound 78] | 5.88 |
| Cc1ccc(NC(=O)C(C)Sc2nc3ccccc3n2-c2cccc(C(=O)O)c2)c(Cl)c1 (centres unmarked) [Compound 82] | < 4.12 |
| COC(=O)COc1ccc(-n2c(SC(C)C(=O)Nc3ccc(C)cc3Cl)nc3ccccc32)cc1 (centres unmarked) [Compound 69] | < 5.03 |
| Cc1ccc(NC(=O)C(C)Sc2nc3ccccc3n2-c2ccc(N(C)C)cc2)c(Cl)c1 (centres unmarked) [Compound 77] | 6.54 |
| Cc1ccc(NC(=O)C(C)Sc2nc3ccccc3n2-c2ccc(CCO)cc2)c(Cl)c1 (centres unmarked) [Compound 64] | 5.60 |

Same assay, conditions: Table 3

| Structure (SMILES) | pEC50 |
| --- | --- |
| Cc1cccc(-n2c(SC(C)C(=O)Nc3ncc(C)cc3Cl)nc3ccccc32)c1 (centres unmarked) [Compound 119] | 7.05 |
| CCOc1ccc(-n2c(SC(C)C(=O)Nc3ccc([N+](=O)[O-])cc3C)nc3ccccc32)cc1 (centres unmarked) [Compound 110] | < 5.03 |
| CCOc1ccc(-n2c(SC(C)C(=O)Nc3ncc(Cl)cc3Cl)nc3ccccc32)cc1 (centres unmarked) [Compound 102] | 6.70 |

Same assay, conditions: in our assays

| Structure (SMILES) | MeV inhibitory activity |
| --- | --- |
| O=C(CSc1nnc(Br)n1-c1ccc(C2CC2)c2ccccc12)Nc1ccc(C(=O)O)cc1Cl [RDEA-806, 4-(2-((5-bromo-4-(4-cyclopropylnaphthalen-1-yl)-4H-1,2,4-triazol-3-yl)thio)acetamido)-3-chlorobenzoic acid, reference compound] | lacks MeV inhibitory activity |
